{"source": "the supplement of paper PMC11208160", "data": [{"assay": "recombinant barcode read abundance after kanamycin selection (control-corrected) (log10(CPM+1)); higher = more efficient recombination; sequences stand for … in AGTGCAGAGAAAATCGGCCAGTTTTCTCTGCCTGCAGTCCGCATGCCGT…AGATTTATGCAGCGGACTGCCTTTCTCCCAAAGTGATAAACCGGACAGTATCATGGACCGGTTTTCCCGGTAATCCGTATTTGCAAGGTTGGTTTCACT; site = the 11-nt target", "summary_of_the_method": "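Values are log10(CPM+1) from a pooled E. coli screen of targets paired with IS621 bridge RNA target-binding loops. Recombination efficiency here means counts per million of recombinant-junction barcodes, averaged and control-corrected. Plates were chloramphenicol/ampicillin LB agar for the control and chloramphenicol/ampicillin/kanamycin with 0.1 mM IPTG, two replicates each.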", "values": [{"sequence": "TGTGCCTCTTGGGTTCTAACCTGTTGCCT (site TGTACCTCTAG)", "recombinant barcode read abundance (log10)": 0.368}, {"sequence": "TGTGCCTCTTGGGTTCTAACCTGTTGCCT (site TGTCCCTCTAG)", "recombinant barcode read abundance (log10)": 0.02}, {"sequence": "TGTGCCTCTTGGGTTCTAACCTGTTGCCT (site TGTGCCTCTAG)", "recombinant barcode read abundance (log10)": 0.564}, {"sequence": "TGTGCCTCTTGGGTTCTAACCTGTTGCCT (site TGTTCCTCTAG)", "recombinant barcode read abundance (log10)": 0.173}, {"sequence": "TGTTACCCTTGGGTTCTAACCTGTTGCCT (site TGGTACCCTAG)", "recombinant barcode read abundance (log10)": 0.0146}, {"sequence": "TGTTACCCTTGGGTTCTAACCTGTTGCCT (site TGTTACCCTAG)", "recombinant barcode read abundance (log10)": 0.434}, {"sequence": "TGTTAGACTTGGGTTCTAACCTGTTGCCT (site TGTTAGACTAG)", "recombinant barcode read abundance (log10)": 0.164}, {"sequence": "TGTTAGACTTGGGTTCTAACCTGTTGCCT (site TGTTAGTCTCG)", "recombinant barcode read abundance (log10)": 0.113}, {"sequence": "TGTTCATCTTGGGTTCTAACCTGTTGCCT (site TGTTCATCTAG)", "recombinant barcode read abundance (log10)": 0.00521}, {"sequence": "TGTTCATCTTGGGTTCTAACCTGTTGCCT (site TGTTCTTCTAG)", "recombinant barcode read abundance (log10)": 0.0677}, {"sequence": "TGTTCTTCTTGGGTTCTAACCTGTTGCCT (site TGTTCATCTAG)", "recombinant barcode read abundance (log10)": 0.0245}, {"sequence": "TGTTCTTCTTGGGTTCTAACCTGTTGCCT (site TGTTCTTCTAG)", "recombinant barcode read abundance (log10)": 0.12}, {"sequence": "TGTTGGCCTTGGGTTCTAACCTGTTGCCT (site TGTTGCACTAG)", "recombinant barcode read abundance (log10)": 0.0375}, {"sequence": "TGTTGGCCTTGGGTTCTAACCTGTTGCCT (site TGTTGGCCTAG)", "recombinant barcode read abundance (log10)": 0.143}, {"sequence": "TTAACTACTTGGGTTCTAACCTGTTGCTA (site TTAACTACTAA)", "recombinant barcode read abundance (log10)": 0}, {"sequence": "TTAACTACTTGGGTTCTAACCTGTTGCTA (site TTAACTACTCA)", "recombinant barcode read abundance (log10)": 0.0937}, {"sequence": "TTAACTACTTGGGTTCTAACCTGTTGCTA (site TTAACTACTGA)", "recombinant barcode read abundance (log10)": 0.0479}, {"sequence": "TTAACTACTTGGGTTCTAACCTGTTGCTA (site TTAACTACTTA)", "recombinant barcode read abundance (log10)": 0.152}, {"sequence": "TTAACTACTTGGGTTCTAACCTGTTGCTG (site TTAACTACTAA)", "recombinant barcode read abundance (log10)": 0.0189}, {"sequence": "TTAACTACTTGGGTTCTAACCTGTTGCTG (site TTAACTACTCA)", "recombinant barcode read abundance (log10)": 0.425}, {"sequence": "TTAACTACTTGGGTTCTAACCTGTTGCTG (site TTAACTACTGA)", "recombinant barcode read abundance (log10)": 0.0228}, {"sequence": "TTAACTACTTGGGTTCTAACCTGTTGCTG (site TTAACTACTTA)", "recombinant barcode read abundance (log10)": 0.0609}, {"sequence": "TTACGCTCTTGGGTTCTAACCTGTTGCTA (site GGTTATCCTCC)", "recombinant barcode read abundance (log10)": 0.191}, {"sequence": "TTACGCTCTTGGGTTCTAACCTGTTGCTA (site TTACGCTCTTA)", "recombinant barcode read abundance (log10)": 0.621}, {"sequence": "TTACGGGCTTGGGTTCTAACCTGTTGCGG (site TTACGAGCTCC)", "recombinant barcode read abundance (log10)": 1.71}, {"sequence": "TTACGGGCTTGGGTTCTAACCTGTTGCGG (site TTACGCGCTCC)", "recombinant barcode read abundance (log10)": 0.183}, {"sequence": "TTACGGGCTTGGGTTCTAACCTGTTGCGG (site TTACGGGCTCC)", "recombinant barcode read abundance (log10)": 2.58}, {"sequence": "TTACGGGCTTGGGTTCTAACCTGTTGCGG (site TTACGTGCTCC)", "recombinant barcode read abundance (log10)": 0.189}, {"sequence": "TTACTAGCTTGGGTTCTAACCTGTTGCGT (site AGACTAGCTAC)", "recombinant barcode read abundance (log10)": 0.0536}, {"sequence": "TTACTAGCTTGGGTTCTAACCTGTTGCGT (site TTACTAGCTAC)", "recombinant barcode read abundance (log10)": 1.98}, {"sequence": "TTACTCTCTTGGGTTCTAACCTGTTGCCT (site TAACTCTCTAG)", "recombinant barcode read abundance (log10)": 0.127}, {"sequence": "TTACTCTCTTGGGTTCTAACCTGTTGCCT (site TCACTCTCTAG)", "recombinant barcode read abundance (log10)": 0.141}, {"sequence": "TTACTCTCTTGGGTTCTAACCTGTTGCCT (site TGACTCTCTAG)", "recombinant barcode read abundance (log10)": 0.137}, {"sequence": "TTACTCTCTTGGGTTCTAACCTGTTGCCT (site TTACTCTCTAG)", "recombinant barcode read abundance (log10)": 2.13}, {"sequence": "TTAGGGACTTGGGTTCTAACCTGTTGCCT (site TTAGGGACTAG)", "recombinant barcode read abundance (log10)": 2.18}, {"sequence": "TTAGGGACTTGGGTTCTAACCTGTTGCCT (site TTAGGGCCTAG)", "recombinant barcode read abundance (log10)": 0.0947}, {"sequence": "TTAGGGACTTGGGTTCTAACCTGTTGCCT (site TTAGGGGCTAG)", "recombinant barcode read abundance (log10)": 0.517}, {"sequence": "TTAGGGACTTGGGTTCTAACCTGTTGCCT (site TTAGGGTCTAG)", "recombinant barcode read abundance (log10)": 0.108}, {"sequence": "TTAGGGGCTTGGGTTCTAACCTGTTGCCT (site TTAGGGACTAG)", "recombinant barcode read abundance (log10)": 0.911}, {"sequence": "TTAGGGGCTTGGGTTCTAACCTGTTGCCT (site TTAGGGCCTAG)", "recombinant barcode read abundance (log10)": 0.08}, {"sequence": "TTAGGGGCTTGGGTTCTAACCTGTTGCCT (site TTAGGGGCTAG)", "recombinant barcode read abundance (log10)": 1.51}, {"sequence": "TTAGGGGCTTGGGTTCTAACCTGTTGCCT (site TTAGGGTCTAG)", "recombinant barcode read abundance (log10)": 0.0155}, {"sequence": "TTAGGTCCTTGGGTTCTAACCTGTTGCAG (site TTAGATCCTAT)", "recombinant barcode read abundance (log10)": 0.182}, {"sequence": "TTAGGTCCTTGGGTTCTAACCTGTTGCAG (site TTAGGTCCTCT)", "recombinant barcode read abundance (log10)": 2.5}, {"sequence": "TTAGTAACTTGGGTTCTAACCTGTTGCCT (site CTAGTACCTAG)", "recombinant barcode read abundance (log10)": 0.0115}, {"sequence": "TTAGTAACTTGGGTTCTAACCTGTTGCCT (site TTAGTAACTAG)", "recombinant barcode read abundance (log10)": 1.21}, {"sequence": "TTAGTACCTTGGGTTCTAACCTGTTGCCT (site TTAGTACCTAG)", "recombinant barcode read abundance (log10)": 2.55}, {"sequence": "TTAGTACCTTGGGTTCTAACCTGTTGCCT (site TTAGTCCCTAG)", "recombinant barcode read abundance (log10)": 0.218}, {"sequence": "TTAGTACCTTGGGTTCTAACCTGTTGCCT (site TTAGTGCCTAG)", "recombinant barcode read abundance (log10)": 0.135}, {"sequence": "TTAGTACCTTGGGTTCTAACCTGTTGCCT (site TTAGTTCCTAG)", "recombinant barcode read abundance (log10)": 0.369}, {"sequence": "TTAGTCCCTTGGGTTCTAACCTGTTGCCG (site CTAGTCCCTCG)", "recombinant barcode read abundance (log10)": 1.09}, {"sequence": "TTAGTCCCTTGGGTTCTAACCTGTTGCCG (site TTAGTCCCTCG)", "recombinant barcode read abundance (log10)": 2.14}, {"sequence": "TTAGTGCCTTGGGTTCTAACCTGTTGCCT (site TTAGTACCTAG)", "recombinant barcode read abundance (log10)": 1.55}, {"sequence": "TTAGTGCCTTGGGTTCTAACCTGTTGCCT (site TTAGTCCCTAG)", "recombinant barcode read abundance (log10)": 0.0383}, {"sequence": "TTAGTGCCTTGGGTTCTAACCTGTTGCCT (site TTAGTGCCTAG)", "recombinant barcode read abundance (log10)": 2.14}, {"sequence": "TTAGTGCCTTGGGTTCTAACCTGTTGCCT (site TTAGTTCCTAG)", "recombinant barcode read abundance (log10)": 0.0759}, {"sequence": "TTAGTTCCTTGGGTTCTAACCTGTTGCCT (site TTAGTACCTAG)", "recombinant barcode read abundance (log10)": 0.146}, {"sequence": "TTAGTTCCTTGGGTTCTAACCTGTTGCCT (site TTAGTCCCTAG)", "recombinant barcode read abundance (log10)": 0.186}, {"sequence": "TTAGTTCCTTGGGTTCTAACCTGTTGCCT (site TTAGTGCCTAG)", "recombinant barcode read abundance (log10)": 0}, {"sequence": "TTAGTTCCTTGGGTTCTAACCTGTTGCCT (site TTAGTTCCTAG)", "recombinant barcode read abundance (log10)": 0.634}, {"sequence": "TTATAAGCTTGGGTTCTAACCTGTTGCCA (site GTATGAGCTTG)", "recombinant barcode read abundance (log10)": 0.0336}, {"sequence": "TTATAAGCTTGGGTTCTAACCTGTTGCCA (site TTATAAGCTTG)", "recombinant barcode read abundance (log10)": 0.269}, {"sequence": "TTATTCACTTGGGTTCTAACCTGTTGCCT (site TCATTGACTAG)", "recombinant barcode read abundance (log10)": 0.0352}, {"sequence": "TTATTCACTTGGGTTCTAACCTGTTGCCT (site TTATTCACTAG)", "recombinant barcode read abundance (log10)": 1.48}, {"sequence": "TTCAAGTCTTGGGTTCTAACCTGTTGCCT (site TTCAAGACTAG)", "recombinant barcode read abundance (log10)": 0.102}, {"sequence": "TTCAAGTCTTGGGTTCTAACCTGTTGCCT (site TTCAAGCCTAG)", "recombinant barcode read abundance (log10)": 0.198}, {"sequence": "TTCAAGTCTTGGGTTCTAACCTGTTGCCT (site TTCAAGGCTAG)", "recombinant barcode read abundance (log10)": 0.0708}, {"sequence": "TTCAAGTCTTGGGTTCTAACCTGTTGCCT (site TTCAAGTCTAG)", "recombinant barcode read abundance (log10)": 0.33}, {"sequence": "TTCACGTCTTGGGTTCTAACCTGTTGCCT (site TTCACGTCTAG)", "recombinant barcode read abundance (log10)": 0.202}, {"sequence": "TTCACGTCTTGGGTTCTAACCTGTTGCCT (site TTCATGTCTAG)", "recombinant barcode read abundance (log10)": 0.0406}, {"sequence": "TTCAGACCTTGGGTTCTAACCTGTTGCCT (site AGGTACACTGT)", "recombinant barcode read abundance (log10)": 0.0824}, {"sequence": "TTCAGACCTTGGGTTCTAACCTGTTGCCT (site TTCAGACCTAG)", "recombinant barcode read abundance (log10)": 0.912}, {"sequence": "TTCCAAACTTGGGTTCTAACCTGTTGCGG (site TTCCAAACTCC)", "recombinant barcode read abundance (log10)": 1.31}, {"sequence": "TTCCAAACTTGGGTTCTAACCTGTTGCGG (site TTCCACACTCC)", "recombinant barcode read abundance (log10)": 0.193}, {"sequence": "TTCCTATCTTGGGTTCTAACCTGTTGCCT (site TACCTATCTAG)", "recombinant barcode read abundance (log10)": 0.221}, {"sequence": "TTCCTATCTTGGGTTCTAACCTGTTGCCT (site TCCCTATCTAG)", "recombinant barcode read abundance (log10)": 0.071}, {"sequence": "TTCCTATCTTGGGTTCTAACCTGTTGCCT (site TGCCTATCTAG)", "recombinant barcode read abundance (log10)": 0.0749}, {"sequence": "TTCCTATCTTGGGTTCTAACCTGTTGCCT (site TTCCTATCTAG)", "recombinant barcode read abundance (log10)": 0.354}, {"sequence": "TTCGAGTCTTGGGTTCTAACCTGTTGCGG (site TGCGAGTCTAC)", "recombinant barcode read abundance (log10)": 0.0798}, {"sequence": "TTCGAGTCTTGGGTTCTAACCTGTTGCGG (site TTCGAGTCTCC)", "recombinant barcode read abundance (log10)": 1.91}, {"sequence": "TTCGCGCCTTGGGTTCTAACCTGTTGCCT (site TTCACGCCTAG)", "recombinant barcode read abundance (log10)": 0.0251}, {"sequence": "TTCGCGCCTTGGGTTCTAACCTGTTGCCT (site TTCCCGCCTAG)", "recombinant barcode read abundance (log10)": 0.144}, {"sequence": "TTCGCGCCTTGGGTTCTAACCTGTTGCCT (site TTCGCGCCTAG)", "recombinant barcode read abundance (log10)": 0.134}, {"sequence": "TTCGCGCCTTGGGTTCTAACCTGTTGCCT (site TTCTCGCCTAG)", "recombinant barcode read abundance (log10)": 0.176}, {"sequence": "TTCGGGCCTTGGGTTCTAACCTGTTGCCT (site ATCGGGCCTAG)", "recombinant barcode read abundance (log10)": 0.0878}, {"sequence": "TTCGGGCCTTGGGTTCTAACCTGTTGCCT (site CTCGGGCCTAG)", "recombinant barcode read abundance (log10)": 0.0465}]}]}
